Test results from patent US11938189B2, “Compositions and methods for stabilizing protein-containing formulations” (Genentech, Inc., priority 2010, dated 2024).

Legend:
[1] = tested on: anti-MUC16 monoclonal antibody; assay: Stirring-induced aggregation (500 rpm), turbidity; format: physicochemical; conditions: surfactant at one-tenth of its CMC; stirring 500 rpm, ambient temperature, 90 minutes; FIG. 2
Experimental: In this set of studies, a Tefloncoated magnetic stir bar was used to induce agitation in a buffered solution (20 mM histidine-acetate, pH 5.5) of monoclonal antibody. 3 ml of the antibody solution was filled in a 6 cc glass vial and the solution was stirred at 500 rpm using a Teflon-coated stir bar. The solution was stirred for a period of 90 minutes and samples were withdrawn at regular intervals and analyzed for turbidity as an indication of formation of insoluble aggregates. Various surfactants of the class of alkylglycosides were evaluated for their effectiveness to prevent protein aggregation during shaking. The surfactants were used at concentrations below their respective critical micelle concentration (CMC) or above their respective CMC.
FIGS. 2 and 3 show the time-course of turbidity formation in a solution of the anti-MUC16 monoclonal antibody following stirring at 500 rpm using a Teflon-coated magnetic bar at ambient temperature for a period of 90 minutes. Turbidity was evaluated in solutions containing no surfactant as well as in solutions containing different alkylglycoside surfactants or polysorbate 20. […]

[2] = tested on: anti-CD11a monoclonal antibody; assay: Oxidation of Met256 on storage in surfactant-containing antibody solution; format: physicochemical; conditions: 0.1% w/v surfactant, FIG. 15
Experimental: In a second experiment, oxidation of the Met256 amino acid residue in an anti-CD11a monoclonal antibody in solutions containing either n-decyl-β-D-glucopyranoside, n-octyl-β-D-glucopyranoside, or polysorbate 20 was evaluated. For this purpose, 3 ml of the buffered antibody solution (pH 6.0) containing 0.1% w/v of the surfactant was stored in 6 cc vials at either 5° C. or 40° C. for a period of either 2 or 4 weeks.

[3] = tested on: Humanized anti-oxidized LDL monoclonal antibody; assay: Light-induced oxidation of tryptophan residues (LC/MS/MS tryptic peptide map); format: physicochemical; conditions: Light 24 hrs; 0.02% surfactant
Experimental: MAb samples and light treatment: Humanized anti-oxidized LDL monoclonal antibody, was produced at Genentech, Inc. from a CHO cell line. Three independent samples were prepared for photostability studies: 1) control sample, vial wrapped with aluminum foil; 2) test sample, vial light exposed (unwrapped); 3) test sample, vial light exposed (unwrapped) containing the specified non-ionic surfactant. Both control & light exposed samples were kept in a light box for 24 hrs. Light exposure following ICH guideline with following setting for a Atlas SUNTEST CPS+Light Box: Irradiance level=250 watts/square meter; Time set for 24 hours; Total UV dose=538 watt-hours/square meter; Total visible dose=1,320,000 lux-hours.
LC/MS/MS of tryptic MAb peptide map: Samples were digested with trypsin after reduction and alkylation. The resulting peptides were analyzed with a Thermo LTQ-Orbitrap mass spectrometer coupled with an Agilent 1200 capillary HPLC system. HPLC column: Jupiter 5 um C18 250×1.0 mm, flow rate: 70 uL/min, column oven temperature: 55° C. Solvent A: 0.1% TFA in water, B: 0.09% TFA in 90% ACN. Orbitrap setting: MS resolution 60000, MS/MS collected in data dependent mode, using LTQ.
The effect of light, and the protective effect of non-ionic surfactants, on the oxidation of tryptophan residues on an anti-oxidized LDL antibody was determined.

[4] = tested on: anti-MUC16 monoclonal antibody; assay: Shaking at 300 rpm, turbidity of antibody formulation; format: physicochemical; conditions: shaking 300 rpm, 72 hours, 37° C.
Experimental: (§1) In this set of studies, a buffered solution (20 mM sodium phosphate buffer, pH 7.4) of monoclonal antibody was subjected to shaking on an orbital shaker at 150 rpm, at a controlled temperature of 37° C. These studies were carried out using a 3 ml solution fill of the antibody solution in a 6 cc glass vial. Samples were withdrawn at regular intervals and analyzed for percent monomer using size-exclusion chromatography. Various surfactants of the class of alkylglycosides were evaluated for their effectiveness to prevent protein aggregation during shaking. The surfactants were used at concentrations below their respective critical micelle concentration (CMC) or above their respective CMC.
In FIG. 4, the effect of varying the concentration of n-octyl-β-D-glucopyranoside on the turbidity of anti-MUC16 monoclonal antibody formulations during shaking at 300 rpm for 72 hours at 37° C. was investigated.
(§2) In FIGS. 6-9, the effect of 0.23 mM (0.02% w/v) polysorbate 20 or 3.6 mM (0.1% w/v) n-octyl-β-D-glucopyranoside on the turbidity of aqueous formulations of an anti-MUC16 monoclonal antibody (FIG. 6), an anti-IgE monoclonal antibody (FIG. 7), an anti-CD11a monoclonal antibody (FIG. 8), and an anti-CD22 monoclonal antibody (FIG. 9), during shaking at 300 rpm for 72 hours at 37° C. was investigated.

[5] = tested on: anti-MUC16 monoclonal antibody; assay: Shaking-induced aggregation (150 rpm), percent monomer by size-exclusion chromatography; format: physicochemical; conditions: surfactant at one half of its CMC; shaking 150 rpm, 37° C., 64 hours; FIG. 1
Experimental: as §1
The surfactants were employed at one half the concentration of their respective CMC values, i.e., 1.1 mM (0.035% w/v) n-decyl-β-D-glucopyranoside, 9 mM (0.24%) n-octyl-β-D-glucopyranoside and 0.04 mM (0.0035%) polysorbate 20.

[6] = Hydrogen peroxide formation in stored surfactant solutions (Amplex Red Hydrogen Peroxide assay); format: physicochemical; conditions: 0.1% w/v surfactant in water, stored at 40° C. for one month; FIG. 14
Experimental: In a first experiment, solutions of surfactants of the class of alkylglycosides, i.e., n-decyl-β-D-glucopyranoside, n-octyl-β-D-glucopyranoside, and n-decyl-β-D-maltopyranoside, as well as polysorbate 20 at a concentration of 0.1% w/v in water were stored at 40° C. for a period of one month. Samples were then withdrawn and analyzed for the presence of hydrogen peroxide using the Amplex Red Hydrogen Peroxide assay. the results of these analyses are shown in FIG. 14.

[7] = tested on: anti-IgE monoclonal antibody; assay: Shaking at 300 rpm, turbidity of antibody formulation; format: physicochemical; conditions: 0.23 mM (0.02% w/v) polysorbate 20 or 3.6 mM (0.1% w/v) n-octyl-β-D-glucopyranoside; shaking 300 rpm, 72 hours, 37° C.; FIG. 7
Experimental: as §1, §2

[8] = tested on: anti-CD22 monoclonal antibody; assay: as above; format: physicochemical; conditions: 0.23 mM (0.02% w/v) polysorbate 20 or 3.6 mM (0.1% w/v) n-octyl-β-D-glucopyranoside; shaking 300 rpm, 72 hours, 37° C.; FIG. 9
Experimental: as §1, §2

[9] = tested on: anti-CD11a monoclonal antibody; assay: as above; format: physicochemical; conditions: 0.23 mM (0.02% w/v) polysorbate 20 or 3.6 mM (0.1% w/v) n-octyl-β-D-glucopyranoside; shaking 300 rpm, 72 hours, 37° C.; FIG. 8
Experimental: as §1, §2

[10] = in water at 20-25° C.; cited from earlier work
[11] = tested on: anti-IgE monoclonal antibody; assay: Shaking at 300 rpm, percent monomer of antibody; format: physicochemical; conditions: 3.6 mM (0.1% w/v); shaking 300 rpm, 72 hours, 37° C.; FIG. 11
Experimental: as §1
as §2, with “10-13,” for “6-9,”, “percent monomer” for “turbidity”, “10),” for “6),”, “11),” for “7),”, “12),” for “8),”, “13),” for “9),”

[12] = tested on: anti-CD22 monoclonal antibody; assay: Shaking at 300 rpm, percent monomer of antibody; format: physicochemical; conditions: 3.6 mM (0.1% w/v); shaking 300 rpm, 72 hours, 37° C.; FIG. 13
Experimental: as §1
as §2, with “10-13,” for “6-9,”, “percent monomer” for “turbidity”, “10),” for “6),”, “11),” for “7),”, “12),” for “8),”, “13),” for “9),”

[13] = tested on: anti-CD11a monoclonal antibody; assay: Shaking at 300 rpm, percent monomer of antibody; format: physicochemical; conditions: 3.6 mM (0.1% w/v); shaking 300 rpm, 72 hours, 37° C.; FIG. 12
Experimental: as §1
as §2, with “10-13,” for “6-9,”, “percent monomer” for “turbidity”, “10),” for “6),”, “11),” for “7),”, “12),” for “8),”, “13),” for “9),”

[14] = tested on: anti-CD22 monoclonal antibody; assay: Fenton reagent-induced oxidation of Met and Trp residues (phenyl RP-HPLC); format: physicochemical; conditions: 3.6 mM (0.1% w/v); 0.1 ppm Fe3+ and 1 ppm hydrogen peroxide, 2 or 4 weeks at 40° C., pH 5.5; compared with 0.23 mM polysorbate 20 and no surfactant; FIG. 16
Experimental: In a third experiment, Fenton reagent-induced oxidation of Met and Trp amino acid residues (i.e., amino acids known to be susceptible to oxidation) in an anti-CD22 monoclonal antibody was analyzed. Specifically, buffered (20 mM histidine acetate, pH 5.5) solutions of anti-CD22 monoclonal antibody containing 0.1 ppm Fe^3+ and 1 ppm hydrogen peroxide were prepared and stored for either 2 or 4 weeks at 40° C., either in the absence of surfactant or in the presence of 0.23 mM (0.02% w/v) polysorbate 20 or 3.6 mM (0.1% w/v) n-octyl-β-D-glucopyranoside. samples were then withdrawn and percent oxidation of Met and Trp residues was determined from the percent early peaks of the antibody eluting through a phenyl RP-HPLC column.

[15] = tested on: anti-MUC16 monoclonal antibody; assay: Shaking at 300 rpm, percent monomer of antibody; format: physicochemical; conditions: shaking 300 rpm, 72 hours, 37° C.
Experimental: as §1
In FIG. 5, the effect of varying the concentration of n-octyl-β-D-glucopyranoside on the percent monomer of the anti-MUC16 monoclonal antibody in solution, following shaking at 300 rpm at 37° C. for 72 hours was investigated.
as §2, with “10-13,” for “6-9,”, “percent monomer” for “turbidity”, “10),” for “6),”, “11),” for “7),”, “12),” for “8),”, “13),” for “9),”

[16] = 0.23 mM (0.02% w/v) polysorbate 20 or 3.6 mM (0.1% w/v) n-octyl-β-D-glucopyranoside, FIG. 6

## polyoxyethylene sorbitan monolaurate [polysorbate 20, reference compound]
[1]
  prevention of turbidity development on stirring: effective in preventing turbidity development
[2]; pH 6.0, storage at 40° C. for 4 weeks
  percent of Met256 residues oxidized: approximately 16%
[2]; pH 6.0, time zero
  percent of Met256 residues oxidized: approximately 2%
[3]
  % Oxidized Trp33: 0.6%
  % Oxidized Trp92: 8.9%
[4]; [16]
  inhibition of visible antibody aggregates measured by turbidity formation: effectively inhibited the formation of visible antibody aggregates
[5]
  prevention of shaking-induced loss of percent monomer: not effective in preventing shaking-induced loss of monomer
[6]
  hydrogen peroxide formed in surfactant solution: about 10 μM
[7]
  inhibition of visible antibody aggregates measured by turbidity formation: effectively inhibited the formation of visible antibody aggregates
[8]
  inhibition of visible antibody aggregates measured by turbidity formation: effectively inhibited the formation of visible antibody aggregates
[9]
  inhibition of visible antibody aggregates measured by turbidity formation: effectively inhibited the formation of visible antibody aggregates

## CCCCCCCCO[C@@H]1O[C@H](CO)[C@@H](O)[C@H](O)[C@H]1O [n-octyl-β-D-glucopyranoside]
[1]
  prevention of turbidity development on stirring: effective in preventing turbidity development
[10]
  CMC Value: 18 mM
  CMC Value (w/v): 0.53% w/v
[2]; pH 6.0, stored at 5° C. or 40° C. for 2 or 4 weeks
  increase in percent oxidized Met256 vs initial sample: no significant increase
[11]
  maintenance of percent monomer upon shaking vs unshaken sample: effectively maintained the percent monomer
[12]
  maintenance of percent monomer upon shaking vs unshaken sample: effectively maintained the percent monomer
[13]
  maintenance of percent monomer upon shaking vs unshaken sample: effectively maintained the percent monomer
[14]
  Fenton reagent-induced oxidation of susceptible amino acids (Trp, Met): inhibited
[4]; [16]
  inhibition of visible antibody aggregates measured by turbidity formation: effectively inhibited the formation of visible antibody aggregates
[4]; 0.72, 1.8, 3.6, 9 and 18 mM n-octyl-β-D-glucopyranoside, FIG. 4
  inhibition of visible antibody aggregates measured by turbidity formation: effectively inhibited the formation of visible antibody aggregates
[15]; 3.6 mM (0.1% w/v), FIG. 10
  maintenance of percent monomer upon shaking vs unshaken sample: effectively maintained the percent monomer
[15]; all concentrations tested (0.72-18 mM), FIG. 5
  maintenance of percent monomer upon shaking vs unshaken sample: effectively maintained the percent monomer
[5]
  prevention of shaking-induced loss of percent monomer: effective in preventing loss of monomer
[7]
  inhibition of visible antibody aggregates measured by turbidity formation: effectively inhibited the formation of visible antibody aggregates
[8]
  inhibition of visible antibody aggregates measured by turbidity formation: effectively inhibited the formation of visible antibody aggregates
[9]
  inhibition of visible antibody aggregates measured by turbidity formation: effectively inhibited the formation of visible antibody aggregates
